Results reported in patent publication US20050032121A1, “Method of analyzing data obtained from a biological assay” (Pierce Biotechnology, Inc., priority 2003, published 2005).
Ends that are not written are not given here.

How the values were obtained:
[1] = test system: PKC; conditions: literature value, Kuo, J. F. (1994); read-out: Previously Reported IC50; cited from earlier work
[2] = test system: PKC purified from rat brain; test: IQ Platform PKC/PS inhibitor study (fluorescence quench kinase assay); format: biochemical; conditions: Hill slope of the dose response inhibition curve
Procedure: IQ™ Working Solution was prepared by mixing 9 volumes of IQ™ Reagent A and 1 volume of IQ™ Reagent B prior to use to provide full strength IQ™ WS (1×IQ™ WS). The full-strength working solution was further diluted with water to prepare half-strength or quarter-strength IQ™ working solution. In 96 well assays, 4× reaction volume of quarter-strength was added and in 384 and 1536 well assays, 2× reaction volume of half-strength was added.
Enzymatic assays were conducted at room temperature for 1 hour unless otherwise indicated. Reactions were carried out in microwell plates and initiated by addition of ATP or enzyme. Kinase experiments used PKC purified from rat brain. PKC assays were conducted in a final enzyme reaction mixture consisting of 20 mM HEPES, 1 mM CaCl2, 5 mM MgCl2, 1 mM disodium ATP, 1 mM DTT, 0.2 mg/ml phosphatidyl-L-serine, pH 7.4. […] The amounts of enzyme utilized reflect a common unit definition where 1 mU of enzyme is the amount of enzyme required to transfer 1 pmole phosphate per minute at 30° C.
Peptides were labeled on the N-terminus with a proprietary red fluorescent label. Fluorescence was measured using either a BMG PolarStar™ or BMG Optima™ fluorescent plates readers with a 560/590 excitation/emission filter set for the red-fluorophore label.
Inhibitor studies using the IQ Platform with PKC/PS: IC50 values for known PKC inhibitors were determined using fluorophore-labeled pseudosubstrate peptide as the substrate. Inhibitor studies were carried out in triplicate using 500 μU PKC per μl of final enzyme reaction mixture and 60 μM peptide substrate. Inhibitors, diluted in either aqueous solution for water-soluble inhibitors or in 10% DMSO for water-insoluble inhibitors, were incubated with the enzyme for 20 minutes at room temperature, after which the enzymatic reaction was initiated by addition of ATP at a final concentration of 20 μM. The enzymatic reaction was carried out for 1 hour at room temperature followed by addition of 36 μl of 0.5×IQ WS per well. Fluorescence was then measured and data were analyzed using sigmoidal nonlinear regression.

Row | Molecule | IC50 [1] [nM] | Calculated Hillslope Best Fit [2]
1 | CN(C)CCCn1cc(C2=C(c3c[nH]c4ccccc34)C(=O)NC2=O)c2ccccc21 [Bisindolylmaleimide I] | 10 | 1.160
2 | CN[C@@H]1C[C@H]2O[C@@](C)([C@@H]1OC)n1c3ccccc3c3c4c(c5c6ccccc6n2c5c31)C(=O)NC4 [Staurosporine] | […] | 1.225
3 | Calphostin C | 50 | 1.675
4 | Myristoylated Protein Kinase C Inhibitor 20-28, Cell-Permeable: known PKC inhibitor peptide; competitive, peptide binding site (FARKGALRQ; also: myristoylated (place not given here); UniProt P17252 20-28, looked up, fragment) | 8000 | 0.9018
5 | Pseudosubstrate PKC Inhibitor Peptide 19-31: known PKC inhibitor peptide; competitive, peptide binding site (RFARKGALRQKNV; UniProt P17252 19-31, looked up, fragment) | 100 | 0.8462
6 | Pseudosubstrate PKC Inhibitor Peptide 19-36: known PKC inhibitor peptide; competitive, peptide binding site (RFARKGALRQKNVHEVKD; UniProt P17252 19-36, looked up, fragment) | 147 | 1.265
